This is an account of results in paper PMC10144566, “Pharmacokinetic Profile Evaluation of Novel Combretastatin Derivative, LASSBio-1920, as a Promising Colorectal Anticancer Agent” (Pharmaceutics, 2023).

What is called IC50 is the point on the concentration scale where inhibition reaches its midpoint.

Read-outs that look alike come from different tables or passages of the source.

In data set [1] the test system is HPBMC, human peripheral blood mononuclear cells. Nature of the data set: MTT cytotoxicity assay, HPBMC. In kind it is cell-based. The note with it: PBMC, 72 h incubation, read-out: IC50 (95% CI) HPBMC. As to the method:
Heparinized blood was collected from healthy, non-smoking donors who had not taken any drugs during the 15 days prior to sampling. Human peripheral blood mononuclear cells (HPBMC) were isolated by a standard density-gradient centrifugation method over Ficoll-Hypaque® media (Merck-Sigma-Aldrich, St. Louis, MO, USA). HPBMC were washed and resuspended in RPMI-1640 medium supplemented with 20% fetal bovine serum, 2 mM glutamine, 100 U/mL penicillin, and 100 µg/mL streptomycin at 37 °C with 5% CO2. Phytohemagglutinin (3%) was added at the beginning of the culture.
The cytotoxicity of the compounds was determined using the MTT assay. Cells were seeded in 96-well plates as follows: 0.7 × 10^5 cells/well for adherent cancer cells, 0.3 × 10^5 cells/well for suspended cancer cells, and 0.2 × 10^5 cells/well for HPBMCs. The treatments were dissolved in DMSO and added to each well using an automated liquid handler for high-throughput screening (Biomek 3000—Beckman Coulter, Inc., Fullerton, CA, USA) and incubated for either 24, 48, and 72 h. The control group was treated with the vehicle. […] After incubation, the supernatant was decanted and replaced with fresh medium containing MTT (0.5 mg/mL). Three hours later, the MTT’s formazan product was dissolved in 150 µL of pure DMSO, and absorbance was measured at 595 nm (DTX 880 Multimode Detector, Beckman Coulter, Inc., Pasadena, CA, USA).
Data were presented as mean ± standard error of the mean (SEM) from three independent experiments performed in triplicate, calculated using Prism 8.0 (GraphPad/Intuitive Software for Science, San Diego, CA, USA). The IC50 of the compounds was obtained using a non-linear regression of the cytotoxicity curves.

The test system of a further data set is MCF-7. Also noted: method as in PMID 23459143. The note with it: 24 h incubation; cited from earlier work.
The test system of another data set is MDA -MB231. Set-up: method as in PMID 23459143. To be noted: 24 h incubation; cited from earlier work.
For data set [2], the system named is PC-3, prostate adenocarcinoma. Nature of the data set: MTT cytotoxicity assay, PC-3. To be noted: Homo sapiens, 72 h, read-out: IC50 (95% CI) PC-3. Background: Tetrazolium dyes change colour on reduction, which living cells bring about.
Method: (§1) The cytotoxicity of the compounds was determined using the MTT assay [13]. Cells were seeded in 96-well plates as follows: 0.7 × 10^5 cells/well for adherent cancer cells, 0.3 × 10^5 cells/well for suspended cancer cells, and 0.2 × 10^5 cells/well for HPBMCs. […] The control group was treated with the vehicle. […] After incubation, the supernatant was decanted and replaced with fresh medium containing MTT (0.5 mg/mL).
The subject of data set [3] is PC-9, lung adenocarcinoma (overexpressed EGFR with L858R mutation). Nature of the data set: MTT cytotoxicity assay, PC-9. To be noted: for SI HPBMC/PC-9: IC50 for HPBMC/IC50 for the tumor cell line.
Method: as §1
In another data set the test system is N-87, gastric carcinoma. Nature of the data set: MTT cytotoxicity assay, N-87. The note with it: Homo sapiens, 72 h, read-out: IC50 (95% CI) N-87.
The next data set deals with SF-295, glioblastoma. Nature of the data set: MTT cytotoxicity assay, SF-295. To be noted: Homo sapiens, SF-295, 72 h, read-out: IC50 (95% CI) SF-295.
The subject of data set [4] is H-1975, non-small cell lung adenocarcinoma. Nature of the data set: MTT cytotoxicity assay, H-1975. The note with it: Homo sapiens, NCI-H1975, 72 h, read-out: IC50 (95% CI) H-1975.
Method: as §1
Data set [5] has as its system HCT-116 human colorectal cancer cells (colon carcinoma). As to the kind of experiment: MTT cytotoxicity assay, HCT-116. The note with it: for IC50: Homo sapiens; for SI HPBMC/HCT-116: IC50 for HPBMC/IC50 for the tumor cell line, 72 h.
Method: as §1
The next data set is described as follows: PAMPA-BBB permeability. The note with it: for Pe1 (Experimental): replicate 1; for Pe2 (Experimental): replicate 2; for Papp: PAMPA. Type of data set: in vitro ADME. On the technique in general: In PAMPA a lipid-coated filter parts donor from acceptor wells.
On the set-up of data set [6]: method as in Literature (reference not given). The note with it: absorbed fraction of PAMPA-GIT controls; ref Literature (reference not given); cited from earlier work.
Another data set in a line: PAMPA-GIT permeability. Type of data set: in vitro ADME. The note with it: for Papp at 5 h, 0.5 mM: PAMPA-GIT, room temperature, read-out: Pe (Experimental); for Fa%: PAMPA-GIT predicted absorbed fraction, 0–30% low, 30–69% medium, 70–100% high absorption.
The next data set concerns MDA-MB435. Set-up: method as in PMID 16722619, PMID 21488686. The note with it: lowest IC50 value among cancer cell lines; cited from earlier work.
[7] abbreviates: Homo sapiens, 72 h, read-out: IC50 (95% CI) PC-9.
Setting [8] is: HCT-116, 72 h, read-out: IC50 (95% CI) HCT-116.

Method for N-87, gastric carcinoma: as §1
Method for PAMPA-BBB permeability: (§2) For this, two 96-well plates were placed one above the other, and between them, an artificial hydrophobic polyvinylidene fluoride (PVDF) membrane, which was impregnated with a lipid solution. The top plate works as the donor compartment and the bottom one as the receiver compartment.
Parallel artificial membrane permeation assay for the blood–brain barrier (PAMPA-BBB): It was performed according to the previously reported [26] method established by Lu and coworkers [27].
From the text for PAMPA-GIT permeability: as §2
Parallel artificial membrane permeation assay for gastrointestinal tract (GIT-PAMPA): 1% (w/v) phosphatidylcholine was mixed with dodecane as a lipid solution to impregnate the PVDF membrane between the donor and receiver plates to stimulate intestinal permeability. […] A total of 180 µL of the mixture of PBS and DMSO (v/v 95:5) was added to the recipient plate, and 180 µL of the test solution was added to the donor plate. Immediately and carefully, the donor plate was placed above the receiver plate and incubated for 5 h at room temperature. The solution captured on the receptor plate was removed and subsequently analyzed by a UV detector (SpectraMax 5®—Molecular Devices, Sao Jose, CA, USA). The experiments were performed in quadruplicate.
Method for SF-295, glioblastoma: as §1

In the case of `COc1ccc(/C=C\c2cc(OC)c(OC)c(OC)c2)cc1O` [CA4, Combretastatin A-4], the IC50 was 4.7 nM in [1]; 10 nM in the data set on MCF-7; 110 nM with MDA -MB231; 8 nM in data set [2]; 2600 nM in data set [3] (Homo sapiens, 24 h, read-out: IC50 (95% CI) PC-9 24 h); 1380 nM in [3] (Homo sapiens, 48 h, read-out: IC50 (95% CI) PC-9 48 h). Besides, the IC50 in data set [3] (setting [7]) is 110 nM; in [3] (Homo sapiens, 72 h, read-out: IC50 (95% CI) PC-9 72 h), 110 nM; in the data set on N-87, gastric carcinoma, 3340 nM; in the data set on SF-295, glioblastoma, 8 nM; in data set [4], 35 nM; in [5] (HCT-116, 48 h, read-out: IC50 (95% CI) HCT-116 48 h), 200 nM. Further, the IC50 in [5] (setting [8]) stood at 2.1 nM; in data set [5] (HCT-116, 72 h, read-out: IC50 (95% CI) HCT-116 72 h) it was 2.1 nM. Also, in [3] (72 h), the “SI HPBMC/PC-9” value is reported as 0.043. Also, the “SI HPBMC/HCT-116” value in data set [5] was 2.24.
With `Cn1c(=O)c2c(ncn2C)n(C)c1=O` [Caffeine], in the data set “PAMPA-BBB permeability” (PAMPA-BBB), the “Pe1 (Experimental)” value is listed as 0.36 10–6 cm/s and the “Pe2 (Experimental)” value is −0.10 10–6 cm/s.
As for `CO/N=C(\C(=O)N[C@@H]1C(=O)N2C(C(=O)O)=C(CSc3nc(=O)c(=O)[nH]n3C)CS[C@H]12)c1csc(N)n1` [Ceftriaxone], the “Fa (Literature)” value in [6] was 1.
As to `O=c1ccc2ccccc2o1` [Coumarin], the Papp at 5 h, 0.5 mM in the data set “PAMPA-GIT permeability” amounted to 26 ×10⁻⁶ cm/s.
For `O=C(O)Cc1ccccc1Nc1c(Cl)cccc1Cl` [Diclofenac], the Fa% in “PAMPA-GIT permeability” is given as 100.0%. Also, in [6], the “Fa (Literature)” value is given as 100.
Turning to `CCn1cc(C(=O)O)c(=O)c2cc(F)c(N3CCNCC3)nc21` [Enoxacin], in “PAMPA-BBB permeability” (PAMPA-BBB classification: absorbed by the Central Nervous System, read-out: CNS Permeability), the Papp is less than 1.13 ×10⁻⁶ cm/s. The Papp in the data set “PAMPA-BBB permeability” (PAMPA-BBB, mean, read-out: Pe (Experimental Mean)) is 0.3 ×10⁻⁶ cm/s. In addition, in “PAMPA-BBB permeability” (PAMPA-BBB), the “Pe1 (Experimental)” value was 0.48 10–6 cm/s and the “Pe2 (Experimental)” value is 0.06 10–6 cm/s.
Take `COc1cc(C(=O)NN=Cc2ccccc2)cc(OC)c1OC` [LASSBio-1586]: the IC50 was 1340 nM in data set [1]; 64 nM in the data set on MDA-MB435; 920 nM in data set [2]; 750 nM in [3] (setting [7]); 820 nM in the data set with N-87, gastric carcinoma; 260 nM with SF-295, glioblastoma. In addition, the IC50 was 2830 nM in [4] and 320 nM in data set [5] (setting [8]). In addition, the “SI HPBMC/PC-9” value in [3] (72 h) is 1.8. In addition, in data set [5], the “SI HPBMC/HCT-116” value was 4.2.
Take `CCn1cc(C(=O)O)c(=O)c2cc(F)c(N3CCNCC3)cc21` [Norfloxacin]: the Fa% in the data set “PAMPA-GIT permeability” was 51.39%.
In the case of `CCOc1cc2ncc(C#N)c(Nc3ccc(F)c(Cl)c3)c2cc1NC(=O)/C=C/CN(C)C` [PELITINIB, Pelitinib], the IC50 is 530 nM in [3] (read-out: IC50 (95% CI) PC-9, 72 h incubation, MTT); 330 nM in the data set on N-87, gastric carcinoma; 4400 nM in data set [4].
Consider `CNC(=C[N+](=O)[O-])NCCSCc1ccc(CN(C)C)o1` [Ranitidine], for which, in “PAMPA-GIT permeability”, the Fa% was 16.50% and the Papp at 5 h, 0.5 mM was found to be 0.2 ×10⁻⁶ cm/s.
In the case of `CCN(CC)CCNC(=O)c1c(C)[nH]c(/C=C2\C(=O)Nc3ccc(F)cc32)c1C` [SUNITINIB, Sunitinib], the IC50 in the data set with N-87, gastric carcinoma was determined as 10900 nM; in data set [4], 4480 nM.
